From US20150119363A1, “METHODS OF TREATING BACTERIAL INFECTIONS” (Rampex Pharmaceuticals, Inc., priority 2012, published 2015)

Tests used:
Type in all cases: cell-based
[1] = tested on: Enterobacter cloacae ECL1058 (KPC-3, SHV-11, TEM-1); assay: Checkerboard assay, Compound 5 with biapenem; conditions: ECL1058
From the text: (§1) The potentiation effect is observed by the reduction of the minimum inhibitory concentration of β-lactam antibiotics in the presence of β-lactamase inhibitors (BLIs). […] Methods for Dilution of Antimicrobial Susceptibility Tests for Bacteria That Grow Aerobically—Eighth Edition; Approved Standard. CLSI Document M07-A8, 2009). In this assay, multiple dilutions of two drugs, namely BLI and β-lactam (biapenem), are being tested, alone and in combination, at concentrations equal to, above and below their respective minimal inhibitory concentrations (MICs). BLIs are solubilized in 10% DMSO at 10 mg/mL. Stock solutions are further diluted, according to the needs of a particular assay, in Mueller Hinton Broth (MHB). Stock solution can be stored at −80° C.
(§2) The checkerboard (CB) assay is performed in microtiter plates. Biapenem is diluted in the x axis, each column containing a single concentration of antibiotic. BLIs are diluted in the y axis, each row containing an equal concentration of BLI. The result of these manipulations is that each well of the microtiter plate contains a unique combination of concentrations of the two agents. The assay is performed in MHB with a final bacterial inoculum of 5×10^5 CFU/mL (from an early-log phase culture). Microtiter plates are incubated during 20 h at 35° C. and are read using a microtiter plate reader (Molecular Devices) at 650 nm as well as visual observation using a microtiter plate reading mirror.

[2] = tested on: Enterobacter cloacae ECL1059 (KPC-3, SHV-12, TEM-1); assay: Checkerboard assay, Compound 5 with biapenem; conditions: ECL1059
From the text: as §1, §2

[3] = tested on: Escherichia coli EC1007 (KPC-3); assay: Checkerboard assay, Compound 5 with biapenem; conditions: EC1007
From the text: as §1, §2

[4] = tested on: Klebsiella oxytoca KX1017 (KPC-2, OXA-2, SHV-30); assay: Checkerboard assay, Compound 5 with biapenem; conditions: KX1017
From the text: as §1, §2

[5] = tested on: Klebsiella oxytoca KX1018 (KPC-2, SHV-40, OXY-1); assay: Checkerboard assay, Compound 5 with biapenem; conditions: KX1018
From the text: as §1, §2

[6] = tested on: Klebsiella oxytoca KX1019 (KPC-2, OXA-2); assay: Checkerboard assay, Compound 5 with biapenem; conditions: KX1019
From the text: as §1, §2

[7] = tested on: Klebsiella pneumoniae KP1004 (KPC-2); assay: Checkerboard assay, Compound 5 with biapenem; conditions: KP1004
From the text: as §1, §2

[8] = tested on: Klebsiella pneumoniae KP1008 (KPC-2); assay: Checkerboard assay, Compound 5 with biapenem; conditions: KP1008
From the text: as §1, §2

[9] = tested on: Klebsiella pneumoniae KP1082 (KPC-2, SHV-1); assay: Checkerboard assay, Compound 5 with biapenem; conditions: KP1082
From the text: as §1, §2

[10] = tested on: Klebsiella pneumoniae KP1083 (KPC-3, SHV-1, TEM-1); assay: Checkerboard assay, Compound 5 with biapenem; conditions: KP1083
From the text: as §1, §2

[11] = tested on: Klebsiella pneumoniae KP1084 (KPC-3, SHV-11, TEM-1); assay: Checkerboard assay, Compound 5 with biapenem; conditions: KP1084
From the text: as §1, §2

[12] = tested on: Klebsiella pneumoniae KP1087 (KPC-2, CTX-M-15, SHV-11, TEM-1); assay: Checkerboard assay, Compound 5 with biapenem; conditions: KP1087
From the text: as §1, §2

[13] = tested on: Klebsiella pneumoniae KP1088 (KPC-3, SHV-11, TEM-1); assay: Checkerboard assay, Compound 5 with biapenem; conditions: KP1088
From the text: as §1, §2

[14] = tested on: K. pneumoniae KP1081 (NDM-1, CMY-6, SHV-11, CTX-M-15, TEM-1); assay: Aztreonam/Tigemonam MIC at various concentrations of BLI; conditions: KP1081
Experimental: (§3) MIC values for each bacterial strain were measured for each antimicrobial compound at various concentrations of each BLI.

[15] = tested on: bacterial strains that expressed the beta-lactamase, NDM-1 and CMY-6; assay: Aztreonam/Tigemonam MIC at various concentrations of BLI (summary)
Experimental: as §3

SMILES: O=C(O)C[C@@H]1CC[C@H](NC(=O)Cc2cccs2)B(O)O1 [Compound 5, 2-((3R,6S)-2-hydroxy-3-(2-(thiophen-2-yl)acetamido)-1,2-oxaborinan-6-yl)acetic acid]
- Biapenem MIC ([1]; Compound 5 0.31 mg/L): Y (Y = MIC of 0.5 mg/L to 4 mg/L.)
- Biapenem MIC ([1]; Compound 5 0.625 mg/L): Y (Y = MIC of 0.5 mg/L to 4 mg/L.)
- Biapenem MIC ([1]; Compound 5 5 mg/L): X (X = MIC of less than 0.5 mg/L.)
- Biapenem MIC ([1]; Compound 5 10 mg/L): X (X = MIC of less than 0.5 mg/L.)
- Biapenem MIC ([2]; Compound 5 0.31 mg/L): X (X = MIC of less than 0.5 mg/L.)
- Biapenem MIC ([2]; Compound 5 0.625 mg/L): X (X = MIC of less than 0.5 mg/L.)
- Biapenem MIC ([2]; Compound 5 5 mg/L): X (X = MIC of less than 0.5 mg/L.)
- Biapenem MIC ([2]; Compound 5 10 mg/L): X (X = MIC of less than 0.5 mg/L.)
- Biapenem MIC ([2]; Compound 5 […]): X (X = MIC of less than 0.5 mg/L.)
- Biapenem MIC ([3]; Compound 5 0.31 mg/L): X (X = MIC of less than 0.5 mg/L.)
- Biapenem MIC ([3]; Compound 5 0.625 mg/L): X (X = MIC of less than 0.5 mg/L.)
- Biapenem MIC ([3]; Compound 5 5 mg/L): X (X = MIC of less than 0.5 mg/L.)
- Biapenem MIC ([3]; Compound 5 […]): X (X = MIC of less than 0.5 mg/L.)
- Biapenem MIC ([4]; Compound 5 0.31 mg/L): Y (Y = MIC of 0.5 mg/L to 4 mg/L.)
- Biapenem MIC ([4]; Compound 5 0.625 mg/L): X (X = MIC of less than 0.5 mg/L.)
- Biapenem MIC ([4]; Compound 5 5 mg/L): X (X = MIC of less than 0.5 mg/L.)
- Biapenem MIC ([4]; Compound 5 10 mg/L): X (X = MIC of less than 0.5 mg/L.)
- Biapenem MIC ([5]; Compound 5 0.31 mg/L): X (X = MIC of less than 0.5 mg/L.)
- Biapenem MIC ([5]; Compound 5 0.625 mg/L): X (X = MIC of less than 0.5 mg/L.)
- Biapenem MIC ([5]; Compound 5 5 mg/L): NG (NG = No Growth.)
- Biapenem MIC ([5]; Compound 5 10 mg/L): NG (NG = No Growth.)
- Biapenem MIC ([5]; Compound 5 […]): X (X = MIC of less than 0.5 mg/L.)
- Biapenem MIC ([6]; Compound 5 0.31 mg/L): Y (Y = MIC of 0.5 mg/L to 4 mg/L.)
- Biapenem MIC ([6]; Compound 5 0.625 mg/L): Y (Y = MIC of 0.5 mg/L to 4 mg/L.)
- Biapenem MIC ([6]; Compound 5 5 mg/L): X (X = MIC of less than 0.5 mg/L.)
- Biapenem MIC ([6]; Compound 5 10 mg/L): X (X = MIC of less than 0.5 mg/L.)
- Biapenem MIC ([6]; Compound 5 […]): Y (Y = MIC of 0.5 mg/L to 4 mg/L.)
- Biapenem MIC ([7]; Compound 5 0.31 mg/L): X (X = MIC of less than 0.5 mg/L.)
- Biapenem MIC ([7]; Compound 5 0.625 mg/L): X (X = MIC of less than 0.5 mg/L.)
- Biapenem MIC ([7]; Compound 5 5 mg/L): X (X = MIC of less than 0.5 mg/L.)
- Biapenem MIC ([7]; Compound 5 10 mg/L): X (X = MIC of less than 0.5 mg/L.)
- Biapenem MIC ([7]; Compound 5 […]): X (X = MIC of less than 0.5 mg/L.)
- Biapenem MIC ([8]; Compound 5 0.31 mg/L): X (X = MIC of less than 0.5 mg/L.)
- Biapenem MIC ([8]; Compound 5 0.625 mg/L): X (X = MIC of less than 0.5 mg/L.)
- Biapenem MIC ([8]; Compound 5 5 mg/L): NG (NG = No Growth.)
- Biapenem MIC ([8]; Compound 5 10 mg/L): NG (NG = No Growth.)
- Biapenem MIC ([8]; Compound 5 […]): X (X = MIC of less than 0.5 mg/L.)
- Biapenem MIC ([9]; Compound 5 0.31 mg/L): X (X = MIC of less than 0.5 mg/L.)
- Biapenem MIC ([9]; Compound 5 0.625 mg/L): X (X = MIC of less than 0.5 mg/L.)
- Biapenem MIC ([9]; Compound 5 5 mg/L): X (X = MIC of less than 0.5 mg/L.)
- Biapenem MIC ([9]; Compound 5 10 mg/L): X (X = MIC of less than 0.5 mg/L.)
- Biapenem MIC ([9]; Compound 5 […]): X (X = MIC of less than 0.5 mg/L.)
- Biapenem MIC ([10]; Compound 5 0.31 mg/L): X (X = MIC of less than 0.5 mg/L.)
- Biapenem MIC ([10]; Compound 5 0.625 mg/L): X (X = MIC of less than 0.5 mg/L.)
- Biapenem MIC ([10]; Compound 5 5 mg/L): X (X = MIC of less than 0.5 mg/L.)
- Biapenem MIC ([11]; Compound 5 0.31 mg/L): Z (Z = MIC of greater than 4 mg/L.)
- Biapenem MIC ([11]; Compound 5 0.625 mg/L): Z (Z = MIC of greater than 4 mg/L.)
- Biapenem MIC ([11]; Compound 5 5 mg/L): X (X = MIC of less than 0.5 mg/L.)
- Biapenem MIC ([11]; Compound 5 10 mg/L): X (X = MIC of less than 0.5 mg/L.)
- Biapenem MIC ([12]; Compound 5 0.31 mg/L): Z (Z = MIC of greater than 4 mg/L.)
- Biapenem MIC ([12]; Compound 5 0.625 mg/L): Z (Z = MIC of greater than 4 mg/L.)
- Biapenem MIC ([12]; Compound 5 5 mg/L): X (X = MIC of less than 0.5 mg/L.)
- Biapenem MIC ([13]; Compound 5 0.31 mg/L): X (X = MIC of less than 0.5 mg/L.)
- Biapenem MIC ([13]; Compound 5 0.625 mg/L): X (X = MIC of less than 0.5 mg/L.)
- Biapenem MIC ([13]; Compound 5 5 mg/L): X (X = MIC of less than 0.5 mg/L.)
- Biapenem MIC ([13]; Compound 5 10 mg/L): X (X = MIC of less than 0.5 mg/L.)
- Aztreonam MIC (μg/ml) in the presence of BLI ([14]; Compound 5 0.31 μg/ml): 256 µg/mL
- Aztreonam MIC (μg/ml) in the presence of BLI ([14]; Compound 5 0.63 μg/ml): 128 µg/mL
- Aztreonam MIC (μg/ml) in the presence of BLI ([14]; Compound 5 5 μg/ml): 8 µg/mL
- Aztreonam MIC (μg/ml) in the presence of BLI ([14]; Compound 5 10 μg/ml): 4 µg/mL
- Aztreonam MIC (μg/ml) in the presence of BLI ([14]; Compound 5 20 μg/ml): 2 µg/mL
- effect on Aztreonam or Tigemonam MICs [15]: decreased the Aztreonam or Tigemonan MICs
